{"source": "patent US20110301046A1", "about": "“Methods of Determining Efficacy of Glucocorticoid Treatment of Eosinophilic Esophagitis” (Children's Hospital Medical Center, priority 2008, published 2011)", "key": {"[1]": {"system": "FKBP51, KRT7, H19 transcripts", "experiment": "Real-time PCR analysis of glucocorticoid-regulated genes in patient esophageal biopsies", "type": "in vivo, human", "excerpt": "FIG. 2 depicts the verification of transcript levels of glucocorticoid-regulated genes by real-time PCR analysis. (A) Microarray data for three glucocorticoid-regulated genes. The average expression level for each patient group (normal, EE, Flovent® (fluticasone propionate) responders, Flovent® non-responders) is expressed as fold-change compared to the normal patients. (B) Real-time PCR analysis for three glucocorticoid-regulated genes. The transcript levels for the indicated gene for each patient population was quantified by real-time PCR and normalized to glyceraldehyde-3-phosphate dehydrogenase (GAPDH) levels. […] The expression pattern of three of the identified candidate genes was validated by real-time PCR analysis."}, "[2]": {"system": "eotaxin-3 transcript in TE-7 cells", "experiment": "IL-13-induced eotaxin-3 transcript levels in TE-7 cells, real-time PCR", "type": "cell-based", "conditions": "IL-13 100 ng/ml, 24 h", "protocol": "(§1) FIG. 4 depicts IL-13 induced transcript levels of two representative genes are reversed by FP treatment. TE-7 cells were treated as indicated with IL-13 (100 ng/ml) and/or the indicated dose of FP for 24 h. RNA was isolated and cDNA synthesis was performed. Transcript levels of eotaxin-3 (A) and serpinb4 (B) were determined by real-time PCR analysis and normalized to GAPDH levels. *, p<0.05; **, p<0.01.\n(§2) IL-13 signaling in esophageal epithelial cells is known to have a role in EE pathogenesis by inducing the EE transcriptome. […] When TE-7 cells are treated with IL-13, an increase in eotaxin-3 and serpinb4 transcript levels is observed (FIG. 4A, B)."}, "FKBP51 in TE-7 cells": {"system": "FKBP51 in TE-7 cells", "experiment": "FKBP51 induction in TE-7 esophageal cell line, western blot and real-time PCR", "type": "cell-based", "protocol": "FIG. 3 depicts FKBP51 induction following glucocorticoid treatment. (A) Peripheral blood mononuclear cells (PBMCs) were isolated from a patient blood sample and cultured ex vivo. The cells were treated with the indicated concentration of FP for 24 h. RNA was isolated, cDNA synthesis was performed, and real-time PCR analysis was conducted. FKBP51 transcript levels were normalized to GAPDH levels. (B) Primary esophageal epithelial cells were cultured from the biopsy of an EE patient with active disease. Cells were treated or not with 10^−6 M FP for 24 h. Protein extracts were prepared and subjected to SDS-PAGE and western blot analysis for FKBP51 and actin (left). FKBP51 and actin levels were quantified by densitometry analysis. The ratio of FKBP51 to actin is shown (right). (C) TE-7 cells were treated with the indicated dose of FP for 24 h. Protein extracts were then prepared and subjected to SDS-PAGE and western blot analysis for FKBP51 and actin (top). Densitometry analysis was performed and the fold-change in the ratio of FKBP51 to actin expression is graphed (bottom). (D) TE-7 cells were treated for the indicated amount of time with 10^−7 M FP. RNA was isolated, cDNA synthesis was performed, and real-time PCR analysis to detect FKBP51 and GAPDH transcripts was done (left). In a separate experiment, protein extracts were prepared and then subjected to SDS-PAGE and western blot analysis for FKBP51 and actin (right, top). Following densitometry analysis, the fold-change in the ratio of FKBP51 to actin signal was graphed (right, bottom)*, p<0.05; **, p<0.01. To further study the role of FKBP51 in epithelial cells, the TE-7 esophageal cell line was used to understand the expression patterns of FKBP51 following FP treatment. […] The kinetics of FKBP51 Mrna and protein expression were examined following FP treatment. […] Similarly, FKBP51 protein levels in TE-7 cells increased in a time dependent manner, with maximum levels of protein observed by 24 h following treatment."}, "FKBP51 transcripts": {"system": "FKBP51 transcripts", "experiment": "Whole genome microarray analysis of esophageal biopsy samples from EE patients treated with swallowed FP", "type": "in vivo, human", "conditions": "esophageal biopsies", "excerpt": "FIG. 1 depicts the identification of glucocorticoid-regulated genes in EE patients that respond to FP treatment. (A) Analysis of microarray data to identify glucocorticoid-regulated transcripts. RNA from distinct patient populations was subjected to chip analysis using Affymetrix Human Genome U 133 Plus 2.0 GeneChips®. The groups are composed of the following numbers of patients: normal (NL), n=14; EE, n=14; EE, FP responders (EE R), n=13; EE, FP non-responders, n=8. Using the average expression for each patient group, the subset of genes differentially regulated between normal (NL) and EE patients was identified by t-test (p<0.01). The subset of genes differentially regulated between normal patients and EE patients that respond to FP (EE R) was then identified by 2-fold change filter. Subsequently, the subset of genes differentially regulated between NL and EE patients was subtracted from those differentially regulated between NL and EE R. These transcripts were then subjected to ANOVA, p<0.01. […] The average expression level for each patient group (normal, EE, Flovent® (fluticasone propionate) responders, Flovent® non-responders) is expressed as fold-change compared to the normal patients. […] The transcript levels for the indicated gene for each patient population was quantified by real-time PCR and normalized to glyceraldehyde-3-phosphate dehydrogenase (GAPDH) levels. […]"}, "[3]": {"system": "serpinb4 transcript in TE-7 cells", "experiment": "IL-13-induced serpinb4 transcript levels in TE-7 cells, real-time PCR", "type": "cell-based", "conditions": "IL-13 100 ng/ml, 24 h", "protocol": "as §1, §2"}, "eotaxin-3 3' UTR": {"system": "eotaxin-3 3' UTR", "experiment": "Eotaxin-3 3' UTR luciferase reporter in transfected TE-7 cells, dual luciferase assay", "type": "cell-based", "conditions": "IL-13 100 ng/ml and/or FP 10^-6 M, 24 h, FIG. 6B", "protocol": "(§3) Cells were transfected with Phrl-TK and pEotaxin-3 (A) or pEotaxin-3 3′UTR (B) for 48 h. Cells were then treated with IL-13 (100 ng/ml) and/or FP (10^−6 M) for 24 h. Protein lysates were then collected, and firefly and Renilla luciferase activity for each sample was quantified by dual luciferase assay (Promega). Eotaxin-3 promoter activity is expressed as the ratio of firefly to Renilla luciferase activity. **, p<0.01.\n(§4) The contribution of the promoter and 3′ UTR sequences of eotaxin-3 to the control of its gene expression following IL-13 and FP treatment, was tested using TE-7 cells transiently transfected with a luciferase reporter construct. The cells were transfected with a luciferase reporter construct containing either 800 bp of the eotaxin-3 promoter 5′ of the firefly luciferase gene in the Pg13-Basic vector or a plasmid containing 200 bp of the eotaxin-3 3′ UTR downstream of the firefly luciferase gene in the Pg13-Promoter vector (FIG. 5A). The same cells were co-transfected with a plasmid containing Renilla luciferase under a constitutive promoter (Phrl-TK) that served as a control for transfection efficiency. Part of the observed decrease in IL-13 induced eotaxin-3 Mrna levels following FP treatment can be mediated through modulation of the promoter activity due to the presence of a putative glucocorticoid-responsive element (GRE) in this region (FIG. 5A)."}, "[4]": {"system": "FKBP51 transcript in peripheral blood mononuclear cells", "experiment": "FKBP51 induction in PBMCs cultured ex vivo, real-time PCR", "type": "cell-based, human", "conditions": "all FP concentrations tested, 24 h, normalized to GAPDH", "protocol": "(§5) FIG. 3 depicts FKBP51 induction following glucocorticoid treatment. (A) Peripheral blood mononuclear cells (PBMCs) were isolated from a patient blood sample and cultured ex vivo. The cells were treated with the indicated concentration of FP for 24 h. RNA was isolated, cDNA synthesis was performed, and real-time PCR analysis was conducted. FKBP51 transcript levels were normalized to GAPDH levels. (B) Primary esophageal epithelial cells were cultured from the biopsy of an EE patient with active disease. Cells were treated or not with 10^−6 M FP for 24 h. Protein extracts were prepared and subjected to SDS-PAGE and western blot analysis for FKBP51 and actin (left). FKBP51 and actin levels were quantified by densitometry analysis. The ratio of FKBP51 to actin is shown (right). (C) TE-7 cells were treated with the indicated dose of FP for 24 h. Protein extracts were then prepared and subjected to SDS-PAGE and western blot analysis for FKBP51 and actin (top). Densitometry analysis was performed and the fold-change in the ratio of FKBP51 to actin expression is graphed (bottom). (D) TE-7 cells were treated for the indicated amount of time with 10^−7 M FP. RNA was isolated, cDNA synthesis was performed, and real-time PCR analysis to detect FKBP51 and GAPDH transcripts was done (left). […]"}, "eotaxin-3 promoter": {"system": "eotaxin-3 promoter", "experiment": "Eotaxin-3 promoter luciferase reporter in transfected TE-7 cells, dual luciferase assay", "type": "cell-based", "protocol": "FIG. 5 depicts increased baseline FKBP51 levels impact glucocorticoid repression of IL-13-induced eotaxin-3 promoter activity. (A) Schematics of constructs used in this study. GRE, glucocorticoid response element. CMV, cytomegalovirus promoter. (B) Cells were transfected with Phrl-TK, pEotaxin-3, and Pcdna3.1 or Pfkbp51. Cells were then treated with IL-13 ([…]) and/or FP (10^−6 M) for 24 h. Protein lysates were then collected, and firefly and Renilla luciferase activity for each sample were quantified by dual luciferase assay (Promega). Eotaxin-3 promoter activity is expressed as the ratio of firefly to Renilla luciferase activity. **, p<0.01; ***, p<0.001.\nas §3, §4\nTo test whether increased FKBP51 levels impacted the FP-mediated decrease in IL-13-induced eotaxin-3 promoter activity, TE-7 cells were transfected with either empty vector (Pcdna3.1) or an expression construction that contained FKBP51 under the control of the CMV promoter (Pfkbp51, FIG. 5A) to simulate high baseline levels of FKBP51. […] However, when cells were transfected with the FKBP51 expression vector, the FP-mediated decrease in IL-13 induced eotaxin-3 promoter activity was abolished (FIG. 5B)."}, "[5]": {"system": "FKBP51 protein in primary esophageal epithelial cells", "experiment": "FKBP51 protein in primary esophageal epithelial cells from an EE patient, western blot", "type": "cell-based, human", "conditions": "10^-6 M FP, 24 h, FKBP51 to actin ratio", "protocol": "as §5"}, "[6]": {"conditions": "average, FIG. 2B, real-time PCR"}}, "data": [{"compound": "CCC(=O)O[C@]1(C(=O)SCF)[C@H](C)C[C@H]2[C@@H]3C[C@H](F)C4=CC(=O)C=C[C@]4(C)[C@@]3(F)[C@@H](O)C[C@@]21C", "note": "[FP, S-fluoromethyl-6α,9-difluoro-11β-hydroxy-16α-methyl-3-oxoandrosta-1,4-diene-17β-carbothioate, 17-propionate]", "values": [{"measurement": "FKBP51 levels in FP responders compared to normal patients", "setting": "[1]; [6]", "result": 4, "unit": "fold"}, {"measurement": "FKBP51 transcript levels in FP non-responder patients compared to normal patients", "setting": "[1]; [6]", "result": 1.5, "unit": "fold"}, {"measurement": "FKBP51, KRT7 and H19 transcript levels in FP responder patients compared to untreated patients", "setting": "[1]; microarray and real-time PCR", "result": "increased transcript levels"}, {"measurement": "IL-13 mediated increase in eotaxin-3 transcript levels on concomitant FP treatment", "setting": "[2]; indicated doses of FP", "result": "decreased in a dose-dependent manner"}, {"measurement": "FKBP51 transcript levels in TE-7 cells over time", "setting": "FKBP51 in TE-7 cells; 10^-7 M FP, real-time PCR", "result": "increased by 4 h post treatment and were further increased by 8 h, after which no further increase was observed"}, {"measurement": "time of maximum FKBP51 protein levels in TE-7 cells", "setting": "FKBP51 in TE-7 cells; 10^-7 M FP, western blot", "result": "≤ 24", "unit": "h"}, {"measurement": "FKBP51 protein levels in TE-7 cells in response to FP dose", "setting": "FKBP51 in TE-7 cells; various doses of FP, 24 h, western blot", "result": "dose-dependent increase"}, {"measurement": "increase in FKBP51 transcripts in FP-responders compared to control and active EE individuals", "setting": "FKBP51 transcripts", "result": 4, "unit": "fold"}, {"measurement": "IL-13 mediated increase in serpinb4 transcript levels on concomitant FP treatment", "setting": "[3]; indicated doses of FP", "result": "decreased in a dose-dependent manner"}, {"measurement": "modulation of mRNA stability via eotaxin-3 3' UTR sequence", "setting": "eotaxin-3 3' UTR", "result": "did not show any modulation"}, {"measurement": "FKBP51 transcript levels in isolated PBMCs", "setting": "[4]", "result": "significant increase"}, {"measurement": "FP-mediated decrease in IL-13 induced eotaxin-3 promoter activity in cells transfected with FKBP51 expression vector", "setting": "eotaxin-3 promoter; FKBP51 expression vector, IL-13 10 ng/ml, FP 10^-6 M, 24 h, FIG. 5B", "result": "abolished"}, {"measurement": "reduction of FP-mediated inhibition of IL-13-induced eotaxin-3 expression by FKBP51 overexpression", "setting": "eotaxin-3 promoter; FKBP51 overexpression in TE-7 cells", "result": 50, "unit": "%"}, {"measurement": "IL-13-induced eotaxin-3 promoter activity upon concomitant FP treatment", "setting": "eotaxin-3 promoter; IL-13 100 ng/ml, FP 10^-6 M, 24 h, FIG. 6A", "result": "decrease"}, {"measurement": "reduction of IL-13-induced eotaxin-3 promoter activity by concomitant FP", "setting": "eotaxin-3 promoter; empty vector, IL-13 10 ng/ml, FP 10^-6 M, 24 h, FIG. 5B", "result": 50, "unit": "%"}, {"measurement": "increase in FKBP51 protein in primary esophageal epithelial cells", "setting": "[5]", "result": "approximately 3 fold"}]}, {"compound": "IL-13: cytokine used to induce eotaxin-3 and serpinb4 in TE-7 esophageal epithelial cells", "values": [{"measurement": "eotaxin-3 transcript levels on IL-13 treatment", "setting": "[2]; TE-7 cells", "result": "increase"}, {"measurement": "serpinb4 transcript levels on IL-13 treatment", "setting": "[3]; TE-7 cells", "result": "increase"}, {"measurement": "modulation of mRNA stability via eotaxin-3 3' UTR sequence", "setting": "eotaxin-3 3' UTR", "result": "did not show any modulation"}, {"measurement": "increase in eotaxin-3 promoter activity upon IL-13 treatment", "setting": "eotaxin-3 promoter; empty vector, IL-13 10 ng/ml, 24 h, FIG. 5B", "result": 2, "unit": "fold"}]}]}
